ChEMBL document CHEMBL1146921, “Synthesis and antibacterial activity of 6-O-heteroarylcarbamoyl-11,12-lactoketolides” (2006)
Values after ≈ are worked out from the molar mass of the structure shown.

Assays:
Type in all cases: functional
Staphylococcus aureus [1] = test: Antibacterial activity against Staphylococcus aureus Smith OC4172 in presence of 50% mouse serum
Streptococcus pneumoniae [2] = test: Antibacterial activity against erythromycin-resistant Streptococcus pneumoniae OC4421
Staphylococcus aureus [3] = test: Antibacterial activity against Staphylococcus aureus Smith OC4172
Streptococcus pneumoniae [4] = test: Antibacterial activity against erythromycin-susceptible Streptococcus pneumoniae ATCC 6301
Streptococcus pneumoniae [5] = test: Antibacterial activity against erythromycin-resistant Streptococcus pneumoniae OC4051
Haemophilus influenzae = test: Antibacterial activity against Haemophilus influenzae OC4882

CC[C@H]1OC(=O)[C@H](C)C(=O)[C@H](C)[C@@H](O[C@@H]2O[C@H](C)C[C@H](N(C)C)[C@H]2O)[C@](C)(OC(=O)NC/C=C/c2cccnc2)C[C@@H](C)C(=O)[C@H](C)[C@H]2CC(=O)O[C@@]21C
MIC (Staphylococcus aureus [1]): 1 µg/mL
MIC (Streptococcus pneumoniae [2]): 0.5 µg/mL (≈ 0.66 µM)
MIC (Staphylococcus aureus [3]): 1 µg/mL (≈ 1.32 µM)
MIC (Streptococcus pneumoniae [4]): 0.03 µg/mL (≈ 0.0396 µM)
MIC (Streptococcus pneumoniae [5]): 2 µg/mL (≈ 2.64 µM)
MIC (Haemophilus influenzae): 4 µg/mL (≈ 5.28 µM)

CC[C@H]1OC(=O)[C@H](C)C(=O)[C@H](C)[C@@H](O[C@@H]2O[C@H](C)C[C@H](N(C)C)[C@H]2O)[C@](C)(OC(=O)NCc2ccc3ncccc3c2)C[C@@H](C)C(=O)[C@H](C)[C@H]2CC(=O)O[C@@]21C
MIC (Staphylococcus aureus [1]): 4 µg/mL
MIC (Streptococcus pneumoniae [2]): 0.5 µg/mL (≈ 0.639 µM)
MIC (Staphylococcus aureus [3]): 1 µg/mL (≈ 1.28 µM)
MIC (Streptococcus pneumoniae [4]): 0.06 µg/mL (≈ 0.0767 µM)
MIC (Streptococcus pneumoniae [5]): 2 µg/mL (≈ 2.56 µM)
MIC (Haemophilus influenzae): 8 µg/mL (≈ 10.2 µM)

CC[C@H]1OC(=O)[C@H](C)C(=O)[C@H](C)[C@@H](O[C@@H]2O[C@H](C)C[C@H](N(C)C)[C@H]2O)[C@](C)(OC(=O)NCc2ccc(-c3ccccn3)cc2)C[C@@H](C)C(=O)[C@H](C)[C@H]2CC(=O)O[C@@]21C
MIC (Staphylococcus aureus [1]): 8 µg/mL
MIC (Streptococcus pneumoniae [2]): 0.5 µg/mL (≈ 0.619 µM)
MIC (Staphylococcus aureus [3]): 1 µg/mL (≈ 1.24 µM)
MIC (Streptococcus pneumoniae [4]): 0.03 µg/mL (≈ 0.0371 µM)
MIC (Streptococcus pneumoniae [5]): 0.25 µg/mL (≈ 0.309 µM)
MIC (Haemophilus influenzae): 16 µg/mL (≈ 19.8 µM)

CC[C@H]1OC(=O)[C@H](C)C(=O)[C@H](C)[C@@H](O[C@@H]2O[C@H](C)C[C@H](N(C)C)[C@H]2O)[C@](C)(OC(=O)NC/C=C/c2ccc3ncccc3c2)C[C@@H](C)C(=O)[C@H](C)[C@H]2CC(=O)O[C@@]21C
MIC (Staphylococcus aureus [1]): 2 µg/mL
MIC (Streptococcus pneumoniae [2]): 0.25 µg/mL (≈ 0.309 µM)
MIC (Staphylococcus aureus [3]): 0.5 µg/mL (≈ 0.619 µM)
MIC (Streptococcus pneumoniae [4]): 0.03 µg/mL (≈ 0.0371 µM)
MIC (Streptococcus pneumoniae [5]): 0.12 µg/mL (≈ 0.149 µM)
MIC (Haemophilus influenzae): 2 µg/mL (≈ 2.48 µM)

CC[C@H]1OC(=O)[C@H](C)C(=O)[C@H](C)[C@@H](O[C@@H]2O[C@H](C)C[C@H](N(C)C)[C@H]2O)[C@](C)(OC(=O)NC/C=C/c2ccc3nccnc3c2)C[C@@H](C)C(=O)[C@H](C)[C@H]2CC(=O)O[C@@]21C
MIC (Staphylococcus aureus [1]): 2 µg/mL
MIC (Streptococcus pneumoniae [2]): 0.5 µg/mL (≈ 0.618 µM)
MIC (Staphylococcus aureus [3]): 0.5 µg/mL (≈ 0.618 µM)
MIC (Streptococcus pneumoniae [4]): 0.03 µg/mL (≈ 0.0371 µM)
MIC (Streptococcus pneumoniae [5]): 0.25 µg/mL (≈ 0.309 µM)
MIC (Haemophilus influenzae): 4 µg/mL (≈ 4.94 µM)

CC[C@H]1OC(=O)[C@H](C)C(=O)[C@H](C)[C@@H](O[C@@H]2O[C@H](C)C[C@H](N(C)C)[C@H]2O)[C@](C)(OC(=O)NC/C=C/c2ccc(-c3ccccn3)cc2)C[C@@H](C)C(=O)[C@H](C)[C@H]2CC(=O)O[C@@]21C
MIC (Staphylococcus aureus [1]): 2 µg/mL
MIC (Streptococcus pneumoniae [2]): 0.5 µg/mL (≈ 0.6 µM)
MIC (Staphylococcus aureus [3]): 0.5 µg/mL (≈ 0.6 µM)
MIC (Streptococcus pneumoniae [4]): 0.06 µg/mL (≈ 0.0719 µM)
MIC (Streptococcus pneumoniae [5]): 0.25 µg/mL (≈ 0.3 µM)
MIC (Haemophilus influenzae): 8 µg/mL (≈ 9.59 µM)

CC[C@H]1OC(=O)[C@H](C)C(=O)[C@H](C)[C@@H](O[C@@H]2O[C@H](C)C[C@H](N(C)C)[C@H]2O)[C@](C)(OC(=O)NCc2cnc3ccccc3c2)C[C@@H](C)C(=O)[C@H](C)[C@H]2CC(=O)O[C@@]21C
MIC (Staphylococcus aureus [1]): 4 µg/mL
MIC (Streptococcus pneumoniae [2]): 0.5 µg/mL (≈ 0.639 µM)
MIC (Staphylococcus aureus [3]): 0.5 µg/mL (≈ 0.639 µM)
MIC (Streptococcus pneumoniae [4]): 0.06 µg/mL (≈ 0.0767 µM)
MIC (Streptococcus pneumoniae [5]): 0.5 µg/mL (≈ 0.639 µM)
MIC (Haemophilus influenzae): 8 µg/mL (≈ 10.2 µM)

CC[C@H]1OC(=O)[C@H](C)C(=O)[C@H](C)[C@@H](O[C@@H]2O[C@H](C)C[C@H](N(C)C)[C@H]2O)[C@](C)(OC(=O)NC/C=C/c2cncc3ccccc23)C[C@@H](C)C(=O)[C@H](C)[C@H]2CC(=O)O[C@@]21C
MIC (Staphylococcus aureus [1]): 4 µg/mL
MIC (Streptococcus pneumoniae [2]): 0.25 µg/mL (≈ 0.309 µM)
MIC (Staphylococcus aureus [3]): 0.5 µg/mL (≈ 0.619 µM)
MIC (Streptococcus pneumoniae [4]): ≤ 0.015 µg/mL
MIC (Streptococcus pneumoniae [5]): 0.25 µg/mL (≈ 0.309 µM)
MIC (Haemophilus influenzae): 4 µg/mL (≈ 4.95 µM)

CC[C@H]1OC(=O)[C@H](C)C(=O)[C@H](C)[C@@H](O[C@@H]2O[C@H](C)C[C@H](N(C)C)[C@H]2O)[C@](C)(OC(=O)NC/C=C/c2ccc3cccnc3c2)C[C@@H](C)C(=O)[C@H](C)[C@H]2CC(=O)O[C@@]21C
MIC (Staphylococcus aureus [1]): 4 µg/mL
MIC (Streptococcus pneumoniae [2]): 0.25 µg/mL (≈ 0.309 µM)
MIC (Staphylococcus aureus [3]): 0.25 µg/mL (≈ 0.309 µM)
MIC (Streptococcus pneumoniae [4]): 0.03 µg/mL (≈ 0.0371 µM)
MIC (Streptococcus pneumoniae [5]): 0.12 µg/mL (≈ 0.149 µM)
MIC (Haemophilus influenzae): 2 µg/mL (≈ 2.48 µM)

CC[C@H]1OC(=O)[C@H](C)C(=O)[C@H](C)[C@@H](O[C@@H]2O[C@H](C)C[C@H](N(C)C)[C@H]2O)[C@](C)(OC(=O)NC/C=C/c2cnc3ccccc3c2)C[C@@H](C)C(=O)[C@H](C)[C@H]2CC(=O)O[C@@]21C
MIC (Staphylococcus aureus [1]): 2 µg/mL
MIC (Streptococcus pneumoniae [2]): 0.25 µg/mL (≈ 0.309 µM)
MIC (Staphylococcus aureus [3]): 0.5 µg/mL (≈ 0.619 µM)
MIC (Streptococcus pneumoniae [4]): ≤ 0.015 µg/mL
MIC (Streptococcus pneumoniae [5]): 0.12 µg/mL (≈ 0.149 µM)
MIC (Haemophilus influenzae): 8 µg/mL (≈ 9.9 µM)

CC[C@H]1OC(=O)[C@H](C)C(=O)[C@H](C)[C@@H](O[C@@H]2O[C@H](C)C[C@H](N(C)C)[C@H]2O)[C@](C)(OC(=O)NC/C=C/c2ccc(-c3ccccc3)nc2)C[C@@H](C)C(=O)[C@H](C)[C@H]2CC(=O)O[C@@]21C
MIC (Staphylococcus aureus [1]): 2 µg/mL
MIC (Streptococcus pneumoniae [2]): 0.5 µg/mL (≈ 0.6 µM)
MIC (Staphylococcus aureus [3]): 0.5 µg/mL (≈ 0.6 µM)
MIC (Streptococcus pneumoniae [5]): 0.5 µg/mL (≈ 0.6 µM)
MIC (Haemophilus influenzae): 8 µg/mL (≈ 9.59 µM)

CC[C@H]1OC(=O)[C@H](C)C(=O)[C@H](C)[C@@H](O[C@@H]2O[C@H](C)C[C@H](N(C)C)[C@H]2O)[C@](C)(OC(=O)NC/C=C/c2ccc(-c3ncccn3)cc2)C[C@@H](C)C(=O)[C@H](C)[C@H]2NC(=O)O[C@@]21C
MIC (Staphylococcus aureus [1]): 0.25 µg/mL
MIC (Streptococcus pneumoniae [2]): 0.06 µg/mL (≈ 0.0718 µM)
MIC (Staphylococcus aureus [3]): 0.12 µg/mL (≈ 0.144 µM)
MIC (Streptococcus pneumoniae [4]): 0.03 µg/mL (≈ 0.0359 µM)
MIC (Streptococcus pneumoniae [5]): 0.06 µg/mL (≈ 0.0718 µM)
MIC (Haemophilus influenzae): 4 µg/mL (≈ 4.78 µM)

CC[C@H]1OC(=O)[C@H](C)C(=O)[C@H](C)[C@@H](O[C@@H]2O[C@H](C)C[C@H](N(C)C)[C@H]2O)[C@](C)(OC(=O)NC/C=C/c2ccc(-c3ncccn3)cc2)C[C@@H](C)C(=O)[C@@H](C)[C@H]2CC(=O)O[C@@]21C
MIC (Staphylococcus aureus [1]): 16 µg/mL
MIC (Streptococcus pneumoniae [2]): 1 µg/mL (≈ 1.2 µM)
MIC (Staphylococcus aureus [3]): 2 µg/mL (≈ 2.4 µM)
MIC (Streptococcus pneumoniae [4]): 0.12 µg/mL (≈ 0.144 µM)
MIC (Streptococcus pneumoniae [5]): 2 µg/mL (≈ 2.4 µM)
MIC (Haemophilus influenzae): 8 µg/mL (≈ 9.58 µM)

CC[C@H]1OC(=O)[C@H](C)C(=O)[C@H](C)[C@@H](O[C@@H]2O[C@H](C)C[C@H](N(C)C)[C@H]2O)[C@](C)(OC(=O)NC/C=C/c2ccc(-c3ncccn3)cc2)C[C@@H](C)C(=O)[C@H](C)[C@H]2CC(=O)O[C@@]21C
MIC (Staphylococcus aureus [1]): 0.5 µg/mL
MIC (Streptococcus pneumoniae [2]): 0.25 µg/mL (≈ 0.299 µM)
MIC (Staphylococcus aureus [3]): 0.12 µg/mL (≈ 0.144 µM)
MIC (Streptococcus pneumoniae [4]): 0.03 µg/mL (≈ 0.0359 µM)
MIC (Streptococcus pneumoniae [5]): 0.06 µg/mL (≈ 0.0719 µM)
MIC (Haemophilus influenzae): 8 µg/mL (≈ 9.58 µM)

CC[C@H]1OC(=O)[C@H](C)C(=O)[C@H](C)[C@@H](O[C@@H]2O[C@H](C)C[C@H](N(C)C)[C@H]2O)[C@](C)(OC(=O)NC/C=C/c2cccc(-c3ncccn3)c2)C[C@@H](C)C(=O)[C@H](C)[C@H]2CC(=O)O[C@@]21C
MIC (Staphylococcus aureus [1]): 2 µg/mL
MIC (Streptococcus pneumoniae [2]): 0.5 µg/mL (≈ 0.599 µM)
MIC (Staphylococcus aureus [3]): 0.5 µg/mL (≈ 0.599 µM)
MIC (Streptococcus pneumoniae [4]): 0.06 µg/mL (≈ 0.0719 µM)
MIC (Streptococcus pneumoniae [5]): 0.25 µg/mL (≈ 0.299 µM)
MIC (Haemophilus influenzae): 4 µg/mL (≈ 4.79 µM)

CC[C@H]1OC(=O)[C@H](C)[C@@H](O[C@H]2C[C@@](C)(OC)[C@@H](O)[C@H](C)O2)[C@H](C)[C@@H](O[C@@H]2O[C@H](C)C[C@H](N(C)C)[C@H]2O)[C@](C)(O)C[C@@H](C)C(=O)[C@H](C)[C@@H](O)[C@]1(C)O [ERYTHROMYCIN]
MIC (Staphylococcus aureus [1]): 0.12 µg/mL
MIC (Streptococcus pneumoniae [2]): 4 µg/mL (≈ 5.45 µM)
MIC (Staphylococcus aureus [3]): 0.5 µg/mL (≈ 0.681 µM)
MIC (Streptococcus pneumoniae [4]): 0.06 µg/mL (≈ 0.0818 µM)
MIC (Streptococcus pneumoniae [5]): > 16 µg/mL
MIC (Haemophilus influenzae): 8 µg/mL (≈ 10.9 µM)

CC[C@H]1OC(=O)[C@H](C)C(=O)[C@H](C)[C@@H](O[C@@H]2O[C@H](C)C[C@H](N(C)C)[C@H]2O)[C@](C)(OC)C[C@@H](C)C(=O)[C@H](C)[C@H]2N(CCCCn3cnc(-c4cccnc4)c3)C(=O)O[C@]12C [TELITHROMYCIN]
MIC (Staphylococcus aureus [1]): 0.5 µg/mL
MIC (Streptococcus pneumoniae [2]): 0.12 µg/mL (≈ 0.148 µM)
MIC (Staphylococcus aureus [3]): 0.12 µg/mL (≈ 0.148 µM)
MIC (Streptococcus pneumoniae [4]): 0.015 µg/mL (≈ 0.0185 µM)
MIC (Streptococcus pneumoniae [5]): 0.06 µg/mL (≈ 0.0739 µM)
MIC (Haemophilus influenzae): 2 µg/mL (≈ 2.46 µM)
